The results in this text go back to paper PMC7087583 (Biotechnology Letters, 2012).

For the test, the target named is SARS 3CL^pro (Severe acute respiratory syndrome coronavirus, UniProt P0C6U8). Put plainly: biochemical. Set-up: species or system SARS-CoV.

Some results are limits rather than exact numbers.

In general, IC50 refers to the concentration that gives 50% inhibition. Lower therefore signals inhibition by little substance. As a reminder, the inhibition is the drop in the measured response relative to a control, in per cent. Low values mean little suppression, high ones strong suppression. Consider `O=c1c(O)c(-c2ccc(O)c(O)c2)oc2cc(O)cc(O)c12` [Quercetin], for which 73 ± 4 µM corresponded to half-maximal inhibition (IC50). For the same compound, under “pH 7.5”, the inhibition at 200 µM was more than 80%.

As a reminder, the Ki is a dissociation constant, usually derived from enzyme kinetics or from competition with a known ligand. Regarding `O=C(O[C@@H]1Cc2c(O)cc(O)cc2O[C@H]1c1cc(O)c(O)c(O)c1)c1cc(O)c(O)c(O)c1` [GCG, gallocatechin gallate], the “3CL^pro inhibitory activity relative to EGCG (times higher)” value came to 1.5 times, the IC50 was 47 ± 0.9 µM, the Ki is 25 ± 1.7 µM and the Type of inhibition entry was “competitive inhibition pattern”. Besides, the inhibition at 200 µM (pH 7.5) was more than 80%.

The compound `O=c1c(-c2ccc(O)cc2)coc2c([C@@H]3O[C@H](CO)[C@@H](O)[C@H](O)[C@H]3O)c(O)ccc12` [Puerarin, puerarin] showed an IC50 of 381 ± 12.5 µM. For the same compound, the inhibition at 200 µM (pH 7.5) was more than 30%.

For `O=c1c(-c2ccc(O)cc2)coc2cc(O)ccc12` [Daidzein, daidzein], it took 351 ± 2.9 µM to reach half-maximal inhibition (IC50). In addition, under “pH 7.5”, the inhibition at 200 µM is more than 30%.

Consider `Oc1cc(O)c2c(c1)O[C@H](c1cc(O)c(O)c(O)c1)[C@H](O)C2` [EGC, epigallocatechin], for which, under “pH 7.5”, the “Inhibition (%)” value was determined as 5.4% and the inhibition at 200 µM was found to be 5%.

Take `O=C1c2c(O)cc(O)cc2O[C@H](c2cc(O)c(O)c(O)c2)[C@H]1O` [AMPLS, ampelopsin]: the IC50 is 364 ± 8.7 µM. The compound further had an inhibition at 200 µM (pH 7.5) of more than 30%.
